# According to ChEMBL document CHEMBL1938320, “Biological evaluation and docking studies of recently identified inhibitors of phosphoinositide-3-kinases” (Bioorg Med Chem Lett, 2012):
# Calls of active or inactive are those of the source. No cut-off for these calls is given here.
# How the values were obtained:
# [1] = test system: HCT-116; assay: Growth inhibition of human HCT116 cells overexpressing PI3Kalpha after 48 hrs by MTT assay; assay type: functional, cell-based; details: HCT-116, 48 h
# [2] = test system: HCT-116; assay: Induction of apoptosis in human HCT116 cells overexpressing PI3Kalpha H1047R mutant assessed DNA fragmentation at 25 uM after 48 hrs by ELISA relative to control; assay type: functional
# [3] = test system: HCT-116; assay: Inhibition of Akt expression in human HCT116 cells at 10 uM by immunoblot analysis; assay type: functional, cell-based
# [4] = test system: HCT-116; assay: Induction of apoptosis in human HCT116 cells overexpressing PI3Kalpha assessed DNA fragmentation at 25 uM after 48 hrs by ELISA relative to control; assay type: functional
# [5] = test system: Phosphatidylinositol 4,5-bisphosphate 3-kinase catalytic subunit alpha isoform (Homo sapiens), P42336 [H1047R]; assay: Inhibition of PI3Kalpha H1047R mutant in human HCT116 cells assessed as inhibition of Akt Ser473 phosphorylation at 25 uM by immunoblot analysis; assay type: cell-based; details: HCT-116
# Chain of Phosphatidylinositol 4,5-bisphosphate 3-kinase catalytic subunit alpha isoform (Homo sapiens), P42336 [H1047R] (P42336 whole entry H1047R, canonical isoform): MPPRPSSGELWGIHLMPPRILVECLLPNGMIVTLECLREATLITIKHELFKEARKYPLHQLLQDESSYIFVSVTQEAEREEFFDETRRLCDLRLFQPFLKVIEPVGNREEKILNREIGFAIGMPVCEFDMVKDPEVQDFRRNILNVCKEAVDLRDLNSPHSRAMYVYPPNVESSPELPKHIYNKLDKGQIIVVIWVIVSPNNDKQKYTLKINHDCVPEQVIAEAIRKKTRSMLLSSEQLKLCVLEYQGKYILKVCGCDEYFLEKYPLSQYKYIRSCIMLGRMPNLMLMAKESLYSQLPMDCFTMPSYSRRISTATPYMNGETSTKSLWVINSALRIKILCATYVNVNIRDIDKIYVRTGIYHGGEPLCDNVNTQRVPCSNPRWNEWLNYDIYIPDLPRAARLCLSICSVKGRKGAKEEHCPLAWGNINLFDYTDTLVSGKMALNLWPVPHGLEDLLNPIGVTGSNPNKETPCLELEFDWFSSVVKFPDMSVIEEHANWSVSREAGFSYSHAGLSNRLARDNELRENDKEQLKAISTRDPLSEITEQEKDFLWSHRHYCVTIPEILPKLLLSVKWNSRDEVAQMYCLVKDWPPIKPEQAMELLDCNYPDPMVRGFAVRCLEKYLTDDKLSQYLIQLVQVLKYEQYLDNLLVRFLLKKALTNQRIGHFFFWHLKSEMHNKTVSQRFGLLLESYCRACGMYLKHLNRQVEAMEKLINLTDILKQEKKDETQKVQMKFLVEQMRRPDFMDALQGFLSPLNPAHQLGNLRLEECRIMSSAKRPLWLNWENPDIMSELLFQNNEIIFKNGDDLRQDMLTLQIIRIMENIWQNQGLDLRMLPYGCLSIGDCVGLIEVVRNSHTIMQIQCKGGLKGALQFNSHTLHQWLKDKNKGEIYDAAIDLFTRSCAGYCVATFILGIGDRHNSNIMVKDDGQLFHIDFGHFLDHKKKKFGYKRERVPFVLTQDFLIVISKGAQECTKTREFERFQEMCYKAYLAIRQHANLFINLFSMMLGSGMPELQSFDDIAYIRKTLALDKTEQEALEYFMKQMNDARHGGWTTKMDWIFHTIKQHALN
# [6] = molecular target: Phosphatidylinositol 4,5-bisphosphate 3-kinase catalytic subunit alpha isoform (Homo sapiens) (UniProt P42336); assay: Inhibition of PI3Kalpha in human HCT116 cells assessed as inhibition of Akt Ser473 phosphorylation at 25 uM by immunoblot analysis; assay type: cell-based; details: HCT-116
# Chain of Phosphatidylinositol 4,5-bisphosphate 3-kinase catalytic subunit alpha isoform (Homo sapiens) (P42336 whole entry, the tested form may be a part, canonical isoform): as the sequence (P42336 whole entry H1047R, canonical isoform) above, with R1047H counted along it
# [7] = test system: HCT-116; assay: cells; details: Homo sapiens, HCT-116, 48 h
# Description: Growth inhibition of human HCT116 cells after 48 hrs by MTT assay
# [8] = molecular target: Phosphatidylinositol 4,5-bisphosphate 3-kinase catalytic subunit alpha isoform (Homo sapiens) (UniProt P42336); assay: Inhibition of PI3Kalpha in human HCT116 cells using [32P]ATP at 25 uM after 10 mins; assay type: cell-based; details: HCT-116
# [9] = test system: HCT-116; assay: Induction of apoptosis in human HCT116 cells assessed DNA fragmentation at 25 uM after 48 hrs by ELISA relative to control; assay type: functional
# [10] = test system: HCT-116; assay: Growth inhibition of human HCT116 cells overexpressing PI3Kalpha H1047R mutant after 48 hrs by MTT assay; assay type: functional, cell-based; details: HCT-116, 48 h
# [11] = test system: Phosphatidylinositol 4,5-bisphosphate 3-kinase catalytic subunit alpha isoform (Homo sapiens), P42336 [H1047R]; assay: Inhibition of PI3Kalpha H1047R mutant in human HCT116 cells using [32P]ATP at 25 uM after 10 mins; assay type: cell-based; details: HCT-116
# [12] = test system: Phosphatidylinositol 4,5-bisphosphate 3-kinase catalytic subunit alpha isoform (Homo sapiens), P42336 [H1047R]; assay: Inhibition of PI3Kalpha H1047R mutant in human HCT116 cells using [32P]ATP at 10 uM after 10 mins; assay type: cell-based; details: HCT-116
# [13] = test system: Phosphatidylinositol 4,5-bisphosphate 3-kinase catalytic subunit alpha isoform (Homo sapiens), P42336 [H1047R]; assay: Inhibition of PI3Kalpha H1047R mutant in human HCT116 cells assessed as inhibition of Akt Ser473 phosphorylation at 10 uM by immunoblot analysis; assay type: cell-based; details: HCT-116
# [14] = molecular target: Phosphatidylinositol 4,5-bisphosphate 3-kinase catalytic subunit alpha isoform (Homo sapiens) (UniProt P42336); assay: Inhibition of PI3Kalpha in human HCT116 cells using [32P]ATP at 10 uM after 10 mins; assay type: cell-based; details: HCT-116
# [15] = molecular target: Phosphatidylinositol 4,5-bisphosphate 3-kinase catalytic subunit alpha isoform (Homo sapiens) (UniProt P42336); assay: Inhibition of PI3Kalpha in human HCT116 cells assessed as inhibition of Akt Ser473 phosphorylation at 10 uM by immunoblot analysis; assay type: cell-based; details: HCT-116
SMILES,IC50 [1],fold change (FC) [2],inhibition [3],fold change (FC) [4],inhibition [5],inhibition [6],IC50 [7],inhibition [8],fold change (FC) [9],IC50 [10],inhibition [11],inhibition [12],inhibition [13],inhibition [14],inhibition [15]
O=C(NCc1ccccc1)c1c(O)nc2ccccc2c1O,1.1 µM,11,inactive,3.2,Active,Active,1.8 µM,Active,2.9,0.73 µM,Active,,,,
COc1ccc(C(=O)c2ccccc2C(=O)O)c(O)c1,31 µM,3,inactive,1.3,Active,Active,13 µM,Active,1.8,18 µM,Active,,,,
Cc1cc(O)c2c(c1)C(=O)c1cc(O)cc(O)c1C2=O [EMODIN],5.3 µM,13,Active,12,,,6.2 µM,,8.6,3.8 µM,,Active,Active,Active,Active
O=c1cc(N2CCOCC2)oc2c(-c3ccccc3)cccc12 [LY-294002],,8.6,inactive,8.5,,,,,3.8,,,Active,Active,Active,Active
O=c1c(O)c(-c2cc(O)c(O)c(O)c2)oc2cc(O)cc(O)c12 [MYRICETIN],,,inactive,,Active,Active,,Active,,,Active,,,,
O=c1c(O)c(-c2ccc(O)c(O)c2)oc2cc(O)cc(O)c12 [QUERCETIN],23 µM,4,inactive,2.5,Active,Active,6.7 µM,Active,1,5.7 µM,Active,,,,
